According to patent US11939352B2, “Potent aromatase inhibitors through fungal transformation of anti-cancer drug testolactone: an approach towards treatment of breast cancer” (priority 2021, dated 2024):

What follows are molecules tested against T1, human placental microsomal aromatase (Homo sapiens, UniProt P11511) (assay: Human placental aromatase inhibition assay).
T1 construct: was determined in a pool of human fresh placental microsomes in vitro; from tissue; host or cells: human placenta (pooled fresh microsomes)
T1 sequence (P11511 1-503): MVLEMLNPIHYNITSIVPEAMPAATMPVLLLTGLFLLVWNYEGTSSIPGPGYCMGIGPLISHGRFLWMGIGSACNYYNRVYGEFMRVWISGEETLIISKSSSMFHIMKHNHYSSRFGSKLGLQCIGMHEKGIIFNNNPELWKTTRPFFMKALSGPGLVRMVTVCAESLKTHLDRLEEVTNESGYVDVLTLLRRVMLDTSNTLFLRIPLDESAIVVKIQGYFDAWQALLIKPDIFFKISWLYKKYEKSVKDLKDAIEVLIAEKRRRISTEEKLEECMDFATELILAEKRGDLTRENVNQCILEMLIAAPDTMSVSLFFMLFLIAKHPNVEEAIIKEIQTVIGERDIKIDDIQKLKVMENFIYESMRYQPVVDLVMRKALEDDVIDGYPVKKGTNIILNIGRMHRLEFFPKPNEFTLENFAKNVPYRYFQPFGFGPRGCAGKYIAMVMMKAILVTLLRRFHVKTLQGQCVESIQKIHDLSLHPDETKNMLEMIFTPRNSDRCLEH
Assay type: biochemical

SMILES	IC50
C[C@]12C=CC(=O)C=C1CC[C@@H]1[C@@H]2CC[C@]2(C)OC(=O)CC[C@@H]12 [Compound 1, 3-oxo-13,17-secoandrosta-1,4-dieno-17,13α-lactone, reference compound]	716 ± 31 nM
C[C@]12C=CC(=O)C[C@H]1C[C@H](O)[C@@H]1[C@@H]2CC[C@]2(C)OC(=O)CC[C@@H]12 [Compound 2, 7β-hydroxy-3-oxo-13,17-seco-5β-androsta-1-eno-17,13α-lactone]	8.63 ± 0.4 nM
C[C@]12CC[C@@H](O)C[C@H]1CC[C@@H]1[C@@H]2[C@@H](O)C[C@]2(C)OC(=O)CC[C@@H]12 [Compound 3, 3α,11β-dihydroxy-13,17-seco-5β-androsta-17,13α-lactone]	9.23 ± 1.3 nM
C[C@]12CC[C@H]3[C@@H](CC[C@]45O[C@H]4[C@@H](O)C=C[C@]35C)[C@@H]1CCC(=O)O2 [Compound 4, 4β,5β-epoxy-3β-hydroxy-13,17-secoandrosta-1-eno-17,13α-lactone]	10400 ± 500 nM
C[C@]12CC[C@H]3[C@@H](CC[C@]45O[C@H]4[C@H](O)C=C[C@]35C)[C@@H]1CCC(=O)O2 [Compound 5, 4β,5β-epoxy-3α-hydroxy-13,17-secoandrosta-1-eno-17,13α-lactone]	820 ± 59 nM
